By IC50 is commonly meant the concentration that inhibits the measured activity by half. For orientation: Papp A→B means the apparent permeability from the apical to the basolateral side of a cell layer. As usually defined, the efflux ratio is a quotient of directional permeabilities that is used to spot active efflux.

The values that follow come from patent US20240317718A1, “SUBSTITUTED HETEROCYCLIC COMPOUNDS” (BRISTOL-MYERS SQUIBB COMPANY, priority 2021, published 2024).

Series [1] concerns IFNα-induced pSTAT5 (Tyk2-mediated signal transduction). As to the kind of experiment: IFNα-induced STAT phosphorylation in human whole blood. It is filed as cell-based. The note with it: 1 h incubation with compound, 1000 U/mL IFNα A/D for 15 min, CD3 positive population, read-out: Human Whole blood IFNa pSTAT5 IC50. The procedure: IFNα-Induced STAT Phosphorylation in Human Whole Blood
After an hour long incubation with compound, human whole blood (drawn with ACD-A as anticoagulant) was stimulated with 1000 U/mL recombinant human IFNα A/D (R&D Systems 11200-2) for 15 min. The stimulation was stopped by adding Fix/Lyse buffer (BD 558049). Cells were stained with a CD3 FITC antibody (BD 555916), washed, and permeabilized on ice using Perm III buffer (BD 558050). Cells were then stained with an Alexa-Fluor 647 pSTAT5 (pY694) antibody (BD 612599) for 60 min prior to analysis on the iQue Plus. The amount of pSTAT5 expression was quantitated by median fluorescence intensity after gating on the CD3 positive population.

The nature of series [2]: in vitro. The settings on record: human, Caco-2, pH 7.4.

As to `[2H]C([2H])([2H])NC(=O)c1nnc(NC(=O)C2C[C@H]2C)cc1Nc1cccc(-c2nnn(C)n2)c1OC` (mixture of isomers) [Example 25, 4-{[2-methoxy-3-(2-methyl-2H-1,2,3,4-tetrazol-5-yl)phenyl]amino}-N-(^2H3)methyl-6-[(1R,2R)-2-methylcyclopropaneamido]pyridazine-3-carboxamide], the IC50 in series [1] stood at 248 nM. In series [2], the Papp A→B at 2 h, 3 μM turned out to be 23.3 ×10⁻⁶ cm/s and the efflux ratio at 2 h, 3 μM amounted to 1.1.

On to `[2H]C([2H])([2H])NC(=O)c1nnc(NC(=O)C2CC2)cc1Nc1cccc(-c2noc(CF)n2)c1OC` [Example 1, 6-(cyclopropanecarboxamido)-4-((3-(5-(fluoromethyl)-1,2,4-oxadiazol-3-yl)-2-methoxyphenyl)amino)-N-(methyl-d3)pyridazine-3-carboxamide], for which the IC50 in series [1] amounted to 34 nM. Besides, in series [2], the Papp A→B at 2 h, 3 μM was 65 ×10⁻⁶ cm/s and the efflux ratio at 2 h, 3 μM was determined as 0.5.

As for `[2H]C([2H])([2H])NC(=O)c1nnc(NC(=O)C2CC2)cc1Nc1cccc(-c2noc(COC(C)C)n2)c1OC` [Example 2, 6-(cyclopropanecarboxamido)-4-((3-(5-(isopropoxymethyl)-1,2,4-oxadiazol-3-yl)-2-methoxyphenyl)amino)-N-(methyl-d3)pyridazine-3-carboxamide], the half-inhibitory concentration (IC50) in series [1] was determined as 13 nM. Besides, in series [2], the Papp A→B at 2 h, 3 μM was 66.1 ×10⁻⁶ cm/s and the efflux ratio at 2 h, 3 μM amounted to 0.3.

Take `CCOCc1nc(-c2cccc(Nc3cc(NC(=O)C4CC4)nnc3C(=O)NC)c2OC)no1` [Example 3, 6-cyclopropaneamido-4-({3-[5-(ethoxymethyl)-1,2,4-oxadiazol-3-yl]-2-methoxyphenyl}amino)-N-(^2H3)methylpyridazine-3-carboxamide]: in series [1], the IC50 stood at 31 nM.

Take `CNC(=O)c1nnc(NC(=O)C2CC2)cc1Nc1cccc(-c2noc(CCOC)n2)c1OC` [Example 4, 6-cyclopropaneamido-4-({2-methoxy-3-[5-(2-methoxyethyl)-1,2,4-oxadiazol-3-yl]phenyl}amino)-N-(^2H3)methylpyridazine-3-carboxamide]: the IC50 in series [1] stood at 9 nM.

With `[2H]C([2H])([2H])NC(=O)c1nnc(NC(=O)C2CC2)cc1Nc1cccc(-c2noc(CCF)n2)c1OC` [Example 5, 6-(cyclopropanecarboxamido)-4-((3-(5-(2-fluoroethyl)-1,2,4-oxadiazol-3-yl)-2-methoxyphenyl)amino)-N-(methyl-d3)pyridazine-3-carboxamide], in series [1], the IC50 came to 91 nM. Besides, in series [2], the Papp A→B at 2 h, 3 μM was found to be 64 ×10⁻⁶ cm/s and the efflux ratio at 2 h, 3 μM worked out at 0.7.

Consider `[2H]C([2H])([2H])NC(=O)c1nnc(NC(=O)C2CC2)cc1Nc1cccc(-c2cocn2)c1OC` [Example 6, 6-(cyclopropanecarboxamido)-4-((2-methoxy-3-(oxazol-4-yl)phenyl)amino)-N-(methyl-d3)pyridazine-3-carboxamide], for which the IC50 in series [1] turned out to be 42 nM. For the same compound, in series [2], the apparent permeability from apical to basolateral (Papp A→B) at 2 h, 3 μM came to 78.5 ×10⁻⁶ cm/s and the efflux ratio at 2 h, 3 μM was determined as 0.5.

As to `[2H]C([2H])([2H])NC(=O)c1nnc(NC(=O)C2CC2)cc1Nc1cccc(-c2ccc(C(F)F)cn2)c1OC` [Example 7, 6-(cyclopropanecarboxamido)-4-((3-(5-(difluoromethyl)pyridin-2-yl)-2-methoxyphenyl)amino)-N-(methyl-d3)pyridazine-3-carboxamide], the concentration for half-maximal inhibition (IC50) in series [1] is 431 nM. In series [2], the Papp A→B at 2 h, 3 μM came to 31.3 ×10⁻⁶ cm/s and the efflux ratio at 2 h, 3 μM was found to be 0.6.

Regarding `CNC(=O)c1nnc(NC(=O)C2CC2)cc1Nc1cccc(-c2cc(C)ncn2)c1OC` [Example 8, 6-cyclopropaneamido-4-{[2-methoxy-3-(6-methylpyrimidin-4-yl)phenyl]amino}-N-(^2H3)methylpyridazine-3-carboxamide], in series [1], the IC50 amounted to 248 nM.

For `CNC(=O)c1nnc(NC(=O)C2CC2)cc1Nc1cccc(-c2ncns2)c1OC` [Example 9, 6-cyclopropaneamido-4-{[2-methoxy-3-(1,2,4-thiadiazol-5-yl)phenyl]amino}-N-(^2H3)methylpyridazine-3-carboxamide], the IC50 in series [1] worked out at 161 nM.

For the compound `CNC(=O)c1nnc(NC(=O)C2CC2)cc1Nc1cccc(-c2cnc(F)cn2)c1OC` [Example 10, 6-cyclopropaneamido-4-{[3-(5-fluoropyrazin-2-yl)-2-methoxyphenyl]amino}-N-(^2H3)methylpyridazine-3-carboxamide], in series [1], the half-inhibitory concentration (IC50) is 219 nM.

Take `CNC(=O)c1nnc(NC(=O)C2CC2)cc1Nc1cccc(-c2cnc(C3CC3)cn2)c1OC` [Example 11, 6-cyclopropaneamido-4-{[3-(5-cyclopropylpyrazin-2-yl)-2-methoxyphenyl]amino}-N-(^2H3)methylpyridazine-3-carboxamide]: in series [1], the IC50 is 165 nM.

As to `CNC(=O)c1nnc(NC(=O)C2CC2)cc1Nc1cccc(-c2cnc([N+](=O)[O-])cn2)c1OC` [Example 12, 6-cyclopropaneamido-4-{[2-methoxy-3-(5-nitropyrazin-2-yl)phenyl]amino}-N-(^2H3)methylpyridazine-3-carboxamide], in series [1], the IC50 is 44 nM.

`CNC(=O)c1nnc(NC(=O)C2CC2)cc1Nc1cccc(-c2nc(C)ns2)c1OC` [Example 13, 6-cyclopropaneamido-4-{[2-methoxy-3-(3-methyl-1,2,4-thiadiazol-5-yl)phenyl]amino}-N-(^2H3)methylpyridazine-3-carboxamide]: the IC50 in series [1] was 51 nM.

For `[2H]C([2H])([2H])NC(=O)c1nnc(NC(=O)C2CC2)cc1Nc1cc(C)cc(-c2cnc(C3(O)CCC3)cn2)c1OC` [Example 14, 6-(cyclopropanecarboxamido)-4-((3-(5-(1-hydroxycyclobutyl)pyrazin-2-yl)-2-methoxy-5-methylphenyl)amino)-N-(methyl-d3)pyridazine-3-carboxamide], the IC50 in series [1] is 148 nM. In addition, in series [2], the Papp A→B at 2 h, 3 μM worked out at 37.8 ×10⁻⁶ cm/s and the efflux ratio at 2 h, 3 μM stood at 0.9.

For `[2H]C([2H])([2H])NC(=O)c1nnc(NC(=O)C2CC2)cc1Nc1cc(F)cc(-c2cnc(C3(O)CCC3)cn2)c1OC` [Example 15, 6-cyclopropaneamido-4-({5-fluoro-3-[5-(1-hydroxycyclobutyl)pyrazin-2-yl]-2-methoxyphenyl}amino)-N-(^2H3)methylpyridazine-3-carboxamide], the IC50 in series [1] turned out to be 99 nM. In addition, in series [2], the Papp A→B at 2 h, 3 μM was 30.9 ×10⁻⁶ cm/s and the efflux ratio at 2 h, 3 μM turned out to be 1.

Regarding `[2H]C([2H])([2H])NC(=O)c1nnc(NC(=O)C2CC2)cc1Nc1cc(F)cc(-c2cnc(C3CC3)cn2)c1OC` [Example 16, 6-(cyclopropanecarboxamido)-4-((3-(5-cyclopropylpyrazin-2-yl)-5-fluoro-2-methoxyphenyl)amino)-N-(methyl-d3)pyridazine-3-carboxamide], the 50% inhibitory concentration (IC50) in series [1] is 197 nM. Moreover, in series [2], the Papp A→B at 2 h, 3 μM was determined as 19.4 ×10⁻⁶ cm/s and the efflux ratio at 2 h, 3 μM is 0.5.

Take `[2H]C([2H])([2H])NC(=O)c1nnc(NC(=O)C2CC2)cc1Nc1cccc(-c2coc(C)n2)c1OC` [Example 17, 6-(cyclopropanecarboxamido)-4-((2-methoxy-3-(2-methyloxazol-4-yl)phenyl)amino)-N-(methyl-d3)pyridazine-3-carboxamide]: in series [1], the IC50 came to 63 nM. Besides, in series [2], the Papp A→B at 2 h, 3 μM stood at 47.4 ×10⁻⁶ cm/s and the efflux ratio at 2 h, 3 μM was found to be 0.4.
